Kd and IC50 data for 9 molecules are collected here from US9226929B2, “Pharmaceutically active disubstituted triazine derivatives” (Bayer Intellectual Property GMBH, priority 2011, dated 2016).

The structures appear in SMILES notation.

For one assay, the target named is T1, CDK9/Cyclin K (Homo sapiens, UniProt P50750).
T1 construct: His; purchased Invitrogen
Put plainly: LanthaScreen Eu Kinase Binding Assay, CDK9/Cyclin K. Conditions: tracer 236, read-out: CDK9/Cyclin K (activity range), Kd. A digest of the protocol: (§1)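 TR-FRET displacement of an Alexa Fluor 647 active-site tracer, detected with a Eu anti-GST antibody, over an 8-point 1:3 compound series. Tracer was set at its Kd (30 nM for CDK2/Cyclin A, CDK7 and CDK9/Cyclin T1; 35 nM for CDK9/Cyclin K). Read after 1 h at room temperature; Kd was fitted from sigmoidal curves.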
Background: Time-resolved FRET reads energy transfer from a long-lived donor to a nearby acceptor.

Assay [1] deals with NF-kappaB reporter gene activation. Nature of the assay: NF-kappaB Reporter Assay. Type of assay: cell-based. Particulars: Homo sapiens; HEK293 cells, pNFkBluc reporter, 20 ng/ml TNF alpha, 5 h; read-out: NF-kappaB activation (activity range), IC50. The procedure:
3.2 NF-kappaB Reporter Assay
Cells were maintained in RPMI cell culture medium+glutamine (PAN Biotech GmbH, Aidenbach, Germany) supplemented with 10% fetal calf serum (PAA Laboratories GmbH, Pasching, Austria) and grown at 37° C., 5% CO2. HEK293 cells grown to 50% confluence were transfected with the Amaxa® Cell Line Nucleofector® Kit V (Lonza, Basel, Switzerland, catalog #VCA-1003). Transfections were performed according to manufacturer's optimized protocol for transfection of HEK293 cells. In brief, 2×10^5 cells were transfected with 5 μg highly purified plasmid DNA. Cells were transfected with a NF-kappa B reporter plasmid (pNFkBluc), pTALluc for control, or pMAXGFP for transfection control. After transfection, cells were taken up in 500 μL RPMI1640 cell culture medium, incubated for 1 h at 37° C., and 4.5 ml DMEM without phenol red were added per transfection. Transfected cells were seeded in 96 well plates (Greiner Bio-One, Frickenhausen, Germany, catalog #655098) with 100 μL cell suspension per well and incubated for 48 h. To each well, 100 μL DMEM with 2× concentrated compound diluted from 10 mM DMSO stocks, or 100 μL DMEM with 0.4% DMSO for control wells, was added. The compounds of general formula (I) summarized in Table 6 were used in this assay. Cells were stimulated with 20 ng/ml TNF alpha, and plates were incubated for 5 h at 37° C./5% CO2. Cell culture supernatants were removed to leave 100 μl medium per well, followed by addition of 100 μl Bright Glo luciferase assay reagent (Promega, Madison, Wis., USA, catalog #E2620), and shaking for 5 minutes in the dark. Luminescence was measured with a Victor Photospectrometer (Perkin Elmer, Waltham, Mass., USA). IC50 values were calculated with the software Excel Fit (IDBS, Guildford, UK) from 2-fold dilution series comprising at least 10 concentrations in duplicates.

For another assay, the target named is T2, CDK2/CyclinA (Homo sapiens, UniProt P24941).
T2 construct: GST; purchased Proqinase
Nature of the assay: LanthaScreen Eu Kinase Binding Assay, CDK2. Conditions: tracer 236, read-out: CDK2 (activity range), Kd. A digest of the protocol:
as §1

T1 sequence (P50750 whole entry): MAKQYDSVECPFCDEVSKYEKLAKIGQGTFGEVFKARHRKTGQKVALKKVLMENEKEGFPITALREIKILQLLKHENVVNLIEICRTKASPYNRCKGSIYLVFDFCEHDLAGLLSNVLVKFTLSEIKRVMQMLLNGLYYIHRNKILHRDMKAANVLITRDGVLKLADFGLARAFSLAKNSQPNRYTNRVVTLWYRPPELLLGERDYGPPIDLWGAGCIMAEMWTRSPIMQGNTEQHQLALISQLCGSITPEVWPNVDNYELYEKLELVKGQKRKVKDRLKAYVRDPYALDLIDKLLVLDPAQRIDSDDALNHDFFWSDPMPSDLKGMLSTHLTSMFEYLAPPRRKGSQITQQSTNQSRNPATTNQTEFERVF
T1 sequence (O75909 1-357 isoform O75909-1 partner): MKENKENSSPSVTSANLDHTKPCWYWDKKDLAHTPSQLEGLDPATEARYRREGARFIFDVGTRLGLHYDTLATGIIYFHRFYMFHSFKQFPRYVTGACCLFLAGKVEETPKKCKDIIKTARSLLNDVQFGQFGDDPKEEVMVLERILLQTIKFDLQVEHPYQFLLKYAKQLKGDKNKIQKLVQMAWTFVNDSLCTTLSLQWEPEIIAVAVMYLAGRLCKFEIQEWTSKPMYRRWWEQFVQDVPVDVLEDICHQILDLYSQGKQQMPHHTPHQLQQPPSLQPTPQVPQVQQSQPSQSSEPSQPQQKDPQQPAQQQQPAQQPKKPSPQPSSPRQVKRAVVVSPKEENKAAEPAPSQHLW

For orientation: IC50 means the midpoint of a concentration-inhibition curve. On to `NS(=O)(=O)Cc1cccc(Nc2ncnc(N3CCCC3c3ccccc3)n2)c1` (racemic) [Compound B33, rac-3-[(4-(2-Phenylpyrrolidin-1-yl)-1,3,5-triazin-2-yl)amino]-benzenemethanesulfonamide], for which the Kd on CDK9/Cyclin K is under 100 nM. The half-maximal inhibitory concentration (IC50) in assay [1] was 1000 to 10000 nM.
As to `NS(=O)(=O)Cc1cccc(Nc2ncnc(N3CCc4ncsc4C3)n2)c1` [Compound B45, 3-[(4-(6,7-Dihydrothiazolo[5,4-c]pyridin-5(4H)-yl)-1,3,5-triazin-2-yl)amino]benzenemethanesulfonamide], at CDK2/CyclinA, the Kd was under 100 nM.
Regarding `NS(=O)(=O)Cc1cccc(Nc2ncnc(N3CCCn4nccc43)n2)c1` [Compound B47, 3-[(4-(6,7-Dihydropyrazolo[1,5-a]pyrimidin-4(5H)-yl)-1,3,5-triazin-2-yl)amino]benzenemethanesulfonamide], the Kd on CDK9/Cyclin K and at CDK2/CyclinA was under 100 nM in each case. The half-maximal inhibitory concentration (IC50) in assay [1] was 1000 to 10000 nM.
For the molecule `NS(=O)(=O)Cc1cccc(Nc2ncnc(N3CCc4nc[nH]c4C3)n2)c1` [Compound B44, 3-[(4-(6,7-Dihydro-3H-imidazo[4,5-c]pyridin-5(4H)-yl)-1,3,5-triazin-2-yl)amino]benzenemethanesulfonamide], the Kd on CDK9/Cyclin K and on CDK2/CyclinA was under 100 nM each time.
Consider `NS(=O)(=O)Cc1cccc(Nc2ncnc(N3Cc4cn[nH]c4C3)n2)c1` [Compound B51, 3-[(4-(Pyrrolo[3,4-c]pyrazol-5(1H,4H,6H)-yl)-1,3,5-triazin-2-yl)amino]-benzenemethanesulfonamide], for which the Kd on CDK9/Cyclin K was under 100 nM; on CDK2/CyclinA, 1000 to 10000 nM.
In the case of `COC[C@H]1CCCN1c1ncnc(Nc2cccc(CS(N)(=O)=O)c2)n1` [Compound B17, (R)-3-[(4-(2-(Methoxymethyl)pyrrolidin-1-yl)-1,3,5-triazin-2-yl)amino]benzenemethanesulfonamide], the Kd at CDK9/Cyclin K lay in the range of 100 to 1000 nM; on CDK2/CyclinA it was 1000 to 10000 nM. For the same molecule, the IC50 in assay [1] was over 10000 nM.
For `NS(=O)(=O)Cc1cccc(Nc2ncnc(N3CCCCC3)n2)c1` [Compound B1, 3-[(4-(Piperidin-1-yl)-1,3,5-triazin-2-yl)amino]benzenemethane sulfonamide], in that order: 100 to 1000 nM, over 10000 nM and over 10000 nM.
Turning to `COC(=O)[C@H]1CCCN1c1ncnc(Nc2cccc(CS(N)(=O)=O)c2)n1` [Compound B21, (R)-Methyl 1-[4-((3-(Sulfamoylmethyl)phenyl)amino)-1,3,5-triazin-2-yl]pyrrolidine-2-carboxylate], the Kd was 100 to 1000 nM at CDK9/Cyclin K and 1000 to 10000 nM on CDK2/CyclinA. The half-maximal inhibitory concentration (IC50) in assay [1] is over 10000 nM.
The like results for `NS(=O)(=O)Cc1cccc(Nc2ncnc(N3CCc4ncccc4C3)n2)c1` [Compound B38, 3-[(4-(7,8-Dihydro-1,6-naphthyridin-6(5H)-yl)-1,3,5-triazin-2-yl)amino]-benzenemethanesulfonamide] were, in that order, under 100 nM, 100 to 1000 nM and 1000 to 10000 nM.
